# Laboratory results published in patent US5917056A (priority 1995, dated 1999).
# How the values were obtained:
# tumours [1] = experiment: cytotoxic and antitumour activity (statement in words)
# tumours [2] = conditions: background art, cited from earlier work
# A549 (Human NSCLC) = experiment: Cytotoxicity on tumour cell lines, A549 (Human NSCLC); assay type: cell-based; conditions: exposure time 72 h
# Experimental: (§1) Standard conditions: basal medium=RPMI 1640+20 mM HEPES+2 mM L-glutamine.
# L1210 (murine leukemia) = experiment: Cytotoxicity on tumour cell lines, L1210 (murine leukemia); assay type: cell-based; conditions: Mus musculus, exposure time 72 h
# Experimental: as §1
# MCF7-ADR (resistant) = experiment: cells; assay type: cell-based; conditions: Homo sapiens, NCI/ADR-RES, 72 h
# MCF7 (Human breast) = experiment: Cytotoxicity on tumour cell lines, MCF7 (Human breast); assay type: cell-based; conditions: exposure time 72 h
# Experimental: as §1
# HT-29 (Human colon) = experiment: Cytotoxicity on tumour cell lines, HT-29 (Human colon); assay type: cell-based; conditions: exposure time 72 h
# Experimental: as §1
# A121 (Human ovarian) = experiment: Cytotoxicity on tumour cell lines, A121 (Human ovarian); assay type: cell-based; conditions: exposure time 72 h
# Experimental: as §1
# [3] = clinical use, background art; cited from earlier work
# [4] = adverse effects / tolerability (statement in words); conditions: compared with paclitaxel / prior art
SMILES,activity (in words) (tumours [1]),induction of resistance (tumours [2]),anticancerogenic activity (tumours [2]; different forms of human tumours),IC50 (A549 (Human NSCLC)),IC50 (L1210 (murine leukemia)),IC50 (MCF7-ADR (resistant)),IC50 (MCF7 (Human breast)),IC50 (HT-29 (Human colon)),IC50 (A121 (Human ovarian)),clinical drawbacks [3],drawbacks / tolerability [4]
"CC(=O)O[C@H]1C(=O)[C@@]2(C)[C@H]([C@H](OC(=O)c3ccccc3)[C@]34OC(=S)O[C@H]3[C@H](OC(=O)[C@H](O)[C@H](C=C(C)C)NC(=O)OC(C)(C)C)C(C)=C1C4(C)C)[C@]1(OC(C)=O)CO[C@@H]1C[C@@H]2O [Compound 6, 13-[(2R,3S)-3-tert-butoxycarbonylamino-2-hydroxy-3-isobutenyl-propanoyl]-14β-hydroxybaccatine III 1,14-thiocarbonate]",particularly active,,,,,,,,,,
"CC(=O)O[C@H]1C(=O)[C@@]2(C)[C@H]([C@H](OC(=O)c3ccccc3)[C@]3(O)C[C@H](OC(=O)[C@H](O)[C@@H](NC(=O)c4ccccc4)c4ccccc4)C(C)=C1C3(C)C)[C@]1(OC(C)=O)CO[C@@H]1C[C@@H]2O [Paclitaxel, paclitaxel, reference compound]",,induces resistance quickly,anticancerogenic activity on different forms of human tumours,5.7 ± 0.5 nM,7.5 ± 2 nM,395 ± 8.7 nM,4.8 ± 0.1 nM,6.9 ± 0.4 nM,4.7 ± 0.3 nM,cardiotoxicity,
"CCCCCC(=O)N[C@@H](C=C(C)C)[C@@H](O)C(=O)O[C@@H]1C(C)=C2[C@@H](OC(C)=O)C(=O)[C@@]3(C)[C@H]([C@H](OC(=O)c4ccccc4)[C@@]4(OS(=O)O[C@@H]14)C2(C)C)[C@]1(OC(C)=O)CO[C@@H]1C[C@@H]3O (stereo partly drawn) [Compound 9, 13-[(2R,3S)-3-caproylamino-2-hydroxy-3-isobutenyl-propanoyl]-14β-hydroxybaccatine-III 1,14-sulfite]",advantages compared with the compounds of the prior art in terms of both activity and tolerability,,,1.8 ± 0.2 nM,1.8 ± 0.1 nM,,1 ± 0.3 nM,0.5 ± 0.1 nM,1.1 ± 0.1 nM,,advantages compared with the compounds of the prior art in terms of both activity and tolerability
"CC(=O)O[C@H]1C(=O)[C@@]2(C)[C@H]([C@H](OC(=O)c3ccccc3)[C@]34OC(=S)O[C@H]3[C@H](OC(=O)[C@H](O)[C@H](CC(C)C)NC(=O)OC(C)(C)C)C(C)=C1C4(C)C)[C@]1(OC(C)=O)CO[C@@H]1C[C@@H]2O [Compound 5, 13-[(2R,3S)-3-tert-butoxycarbonyl-amino-2-hydroxy-3-isobutyl-propanoyl]-14β-hydroxybaccatine III 1,14-thiocarbonate]",particularly active,,,2.3 ± 0.3 nM,0.5 ± 0.1 nM,,1.2 ± 0.2 nM,0.3 ± 0.1 nM,0.8 ± 0.3 nM,,
"CCCCCC(=O)N[C@@H](C=C(C)C)[C@@H](O)C(=O)O[C@@H]1C(C)=C2[C@@H](OC(C)=O)C(=O)[C@@]3(C)[C@H]([C@H](OC(=O)c4ccccc4)[C@@]4(OC(=S)O[C@@H]14)C2(C)C)[C@]1(OC(C)=O)CO[C@@H]1C[C@@H]3O [Compound 7, 13-[(2R,3S)-3-caproylamino-2-hydroxy-3-isobutenyl-propanoyl]-14β-hydroxybaccatine III 1,14-thiocarbonate III]",particularly active,,,,,,,,,,
"CCCCCC(=O)N[C@@H](C=C(C)C)[C@@H](O)C(=O)O[C@@H]1C(C)=C2[C@@H](OC(C)=O)C(=O)[C@@]3(C)[C@H]([C@H](OC(=O)c4ccccc4)[C@@]4(OC(=N)O[C@@H]14)C2(C)C)[C@]1(OC(C)=O)CO[C@@H]1C[C@@H]3O [Compound 8, 13-[(2R,3S)-3-caproylamino-2-hydroxy-3-isobutenyl-propanoyl]-14β-hydroxybaccatine III 1,14-iminocarbonate]",advantages compared with the compounds of the prior art in terms of both activity and tolerability,,,2.1 ± 0.3 nM,2.4 ± 0.1 nM,,0.8 ± 0.2 nM,0.5 ± 0.1 nM,1.9 ± 0.2 nM,,advantages compared with the compounds of the prior art in terms of both activity and tolerability
